This note sets out measurements from publication PMC6222646, “HIV-1 Integrase-Targeted Short Peptides Derived from a Viral Protein R Sequence” (Molecules : A Journal of Synthetic Chemistry and Natural …, 2018).

By IC50 is commonly meant the concentration needed to halve the response being measured. Low values mean higher potency, high ones lower potency.

Assay [1] concerns the target T1, HIV-1 integrase (IN) (Human immunodeficiency virus type 1 group M subtype B, UniProt P12497). The assay can be described thus: In vitro integrase catalytic assay, strand transfer (ST). The class given is biochemical. The settings on record: 400 nM IN, 20 nM 32P-labeled pre-cleaved 19T/21B DNA, 37 °C, 2 h. Here is the method:
(§1) IN reactions were performed as previously described. […] Reactions were performed at 37 °C (2 h) and quenched by the addition of an equal volume of loading buffer (formamide containing 1% sodium dodecyl sulfate, 0.25% bromophenol blue, and xylene cyanol). Reaction products were separated in 16% polyacrylamide denaturing sequencing gels. Dried gels were visualized using a Typhoon 8600 instrument (GE Healthcare, Chicago, IL, USA). Densitometric analyses were performed using ImageQuant 5.1 software (GE Healthcare, Chicago, IL, USA). Data analyses (linear regression, 50% inhibitory concentration [IC50] determination, standard deviation [SD]) were performed from at least 3 independent determinations using Prism 5.0c software from GraphPad (La Jolla, CA, USA). To assay 3′-P inhibitory potency, reactions were carried out with [γ-^32P]-labeled full-length oligonucleotide 21T ([…]) annealed to the complementary oligonucleotide 21B ([…]). Formation of the shorter processed 19T products was monitored and quantified to assess enzyme performance and inhibitor potency. The ST reactions were carried out with the [γ-^32P]-labeled pre-cleaved oligonucleotide 19T ([…]) annealed to the complementary oligonucleotide 21B ([…]) and formation of integration products (longer and slower migrating than the starting 19T substrate) was monitored to assess enzyme performance and inhibitor potency.

For assay [2], the target named is T1, HIV-1 integrase (IN). Put plainly: In vitro integrase catalytic assay, 3'-processing (3'-P). The class given is biochemical. As to conditions: 400 nM IN, 20 nM 32P-labeled 21T/21B DNA, 37 °C, 2 h. Here is the method:
as §1

The structures appear in SMILES notation. Values joined by “and” are separate entries in the source; they are usually repeats but may differ in a detail not shown here. Equal values may be shown once. Where a SMILES comes first, the peptide text is derived from it. [ ]: non-standard residue; d: D form. Bpa = N[C@@H](Cc1ccc(C(=O)c2ccccc2)cc1)C(=O)O

As for `CC[C@H](C)[C@H](NC(=O)[C@H](CCCNC(=N)N)NC(=O)[C@H](Cc1ccccc1)NC(=O)[C@H](Cc1c[nH]cn1)NC(=O)[C@@H](NC(=O)[C@@H](N)Cc1ccccc1)[C@@H](C)CC)C(=O)NCC(N)=O` [Peptide 1b, FIHFRIG-amide] (H-FIHFRIG-NH2), the IC50 in assay [1] worked out at 7.3 ± 0.8 µM; in assay [2] it was 31.5 ± 6 µM.

Consider `CC[C@H](C)[C@H](NC(=O)[C@H](CCCNC(=N)N)NC(=O)[C@H](Cc1ccccc1)NC(=O)[C@H](Cc1c[nH]cn1)NC(=O)[C@@H](NC(=O)[C@H](Cc1ccccc1)NC(C)=O)[C@@H](C)CC)C(=O)NCC(N)=O` [Peptide 1c, Ac-FIHFRIG-amide] (Ac-FIHFRIG-NH2), for which the IC50 in assay [1] turned out to be 4.7 ± 0.3 µM; in assay [2] it was 23.5 ± 3 µM.

`CC[C@H](C)[C@H](NC(=O)[C@H](CCCNC(=N)N)NC(=O)[C@H](Cc1ccccc1)NC(=O)[C@H](Cc1c[nH]cn1)NC(=O)[C@@H](NC(=O)[C@@H](N)Cc1ccccc1)[C@@H](C)CC)C(=O)N[C@@H](C)C(=O)O` [Peptide 2a, FIHFRIA] (H-FIHFRIA-OH): the values for the IC50 in assay [1] and in assay [2] were 34.7 ± 2.3 µM and above 111 µM, respectively.

Regarding `CC[C@H](C)[C@H](NC(=O)[C@H](CCCNC(=N)N)NC(=O)[C@H](Cc1ccccc1)NC(=O)[C@H](Cc1c[nH]cn1)NC(=O)[C@@H](NC(=O)[C@@H](N)Cc1ccccc1)[C@@H](C)CC)C(=O)N[C@@H](C)C(N)=O` [Peptide 2b, FIHFRIA-amide] (H-FIHFRIA-NH2), the IC50 in assay [1] was 60.6 ± 8 µM; in assay [2] it was above 111 µM.

For `CC[C@H](C)[C@H](NC(=O)[C@H](CCCNC(=N)N)NC(=O)[C@H](Cc1ccccc1)NC(=O)[C@H](Cc1c[nH]cn1)NC(=O)[C@@H](NC(=O)[C@H](Cc1ccccc1)NC(C)=O)[C@@H](C)CC)C(=O)N[C@@H](C)C(N)=O` [Peptide 2c, Ac-FIHFRIA-amide] (Ac-FIHFRIA-NH2), the IC50 in assay [1] was 30.4 ± 0.7 µM; in assay [2], 74.5 ± 7 µM.

As for `CC[C@H](C)[C@H](NC(=O)[C@@H](N)Cc1ccccc1)C(=O)N[C@@H](Cc1c[nH]cn1)C(=O)N[C@@H](Cc1ccccc1)C(=O)N[C@@H](CCCNC(=N)N)C(=O)N[C@@H](C)C(=O)NCC(=O)O` [Peptide 3a, FIHFRAG] (H-FIHFRAG-OH), the figures for the IC50 in assay [1] and in assay [2] were 22.4 ± 1.7 µM and 66.5 ± 7 µM, respectively.

`CC[C@H](C)[C@H](NC(=O)[C@@H](N)Cc1ccccc1)C(=O)N[C@@H](Cc1c[nH]cn1)C(=O)N[C@@H](Cc1ccccc1)C(=O)N[C@@H](CCCNC(=N)N)C(=O)N[C@@H](C)C(=O)NCC(N)=O` [Peptide 3b, FIHFRAG-amide] (H-FIHFRAG-NH2): the IC50 in assay [1] and in assay [2] was above 111 µM throughout.

In the case of `CC[C@H](C)[C@H](NC(=O)[C@H](Cc1ccccc1)NC(C)=O)C(=O)N[C@@H](Cc1c[nH]cn1)C(=O)N[C@@H](Cc1ccccc1)C(=O)N[C@@H](CCCNC(=N)N)C(=O)N[C@@H](C)C(=O)NCC(N)=O` [Peptide 3c, Ac-FIHFRAG-amide] (Ac-FIHFRAG-NH2), the IC50 came to 28 ± 4 µM in assay [1] and 208 ± 12 µM in assay [2].

In the case of `CC[C@H](C)[C@H](NC(=O)[C@H](C)NC(=O)[C@H](Cc1ccccc1)NC(=O)[C@H](Cc1c[nH]cn1)NC(=O)[C@@H](NC(=O)[C@@H](N)Cc1ccccc1)[C@@H](C)CC)C(=O)NCC(=O)O` [Peptide 4a, FIHFAIG] (H-FIHFAIG-OH), the IC50 in assay [1] and in assay [2] was above 111 µM throughout.

As for `CC[C@H](C)[C@H](NC(=O)[C@H](C)NC(=O)[C@H](Cc1ccccc1)NC(=O)[C@H](Cc1c[nH]cn1)NC(=O)[C@@H](NC(=O)[C@@H](N)Cc1ccccc1)[C@@H](C)CC)C(=O)NCC(N)=O` [Peptide 4b, FIHFAIG-amide] (H-FIHFAIG-NH2), the IC50 in assay [1] and in assay [2] was above 111 µM each time.

As to `CC[C@H](C)[C@H](NC(=O)[C@H](C)NC(=O)[C@H](Cc1ccccc1)NC(=O)[C@H](Cc1c[nH]cn1)NC(=O)[C@@H](NC(=O)[C@H](Cc1ccccc1)NC(C)=O)[C@@H](C)CC)C(=O)NCC(N)=O` [Peptide 4c, Ac-FIHFAIG-amide] (Ac-FIHFAIG-NH2), the IC50 in assay [1] was 81 ± 9 µM; in assay [2] it was above 333 µM.

For the molecule `CC[C@H](C)[C@H](NC(=O)[C@H](CCCNC(=N)N)NC(=O)[C@H](C)NC(=O)[C@H](Cc1c[nH]cn1)NC(=O)[C@@H](NC(=O)[C@@H](N)Cc1ccccc1)[C@@H](C)CC)C(=O)NCC(=O)O` [Peptide 5a, FIHARIG] (H-FIHARIG-OH), the IC50 in assay [1] was 46.6 ± 6.5 µM; in assay [2], above 111 µM.

Consider `CC[C@H](C)[C@H](NC(=O)[C@H](CCCNC(=N)N)NC(=O)[C@H](C)NC(=O)[C@H](Cc1c[nH]cn1)NC(=O)[C@@H](NC(=O)[C@@H](N)Cc1ccccc1)[C@@H](C)CC)C(=O)NCC(N)=O` [Peptide 5b, FIHARIG-amide] (H-FIHARIG-NH2), for which the IC50 in assay [1] and in assay [2] was above 111 µM each time.

`CC[C@H](C)[C@H](NC(=O)[C@H](CCCNC(=N)N)NC(=O)[C@H](C)NC(=O)[C@H](Cc1c[nH]cn1)NC(=O)[C@@H](NC(=O)[C@H](Cc1ccccc1)NC(C)=O)[C@@H](C)CC)C(=O)NCC(N)=O` [Peptide 5c, Ac-FIHARIG-amide] (Ac-FIHARIG-NH2): the figures for the IC50 in assay [1] and in assay [2] were 117 ± 10 µM and above 333 µM, respectively.

With `CC[C@H](C)[C@H](NC(=O)[C@H](CCCNC(=N)N)NC(=O)[C@H](Cc1ccccc1)NC(=O)[C@H](C)NC(=O)[C@@H](NC(=O)[C@@H](N)Cc1ccccc1)[C@@H](C)CC)C(=O)NCC(=O)O` [Peptide 6a, FIAFRIG] (H-FIAFRIG-OH), the IC50 in assay [1] is 6.7 ± 1 µM; in assay [2], 17.4 ± 2 µM.

`CC[C@H](C)[C@H](NC(=O)[C@H](CCCNC(=N)N)NC(=O)[C@H](Cc1ccccc1)NC(=O)[C@H](C)NC(=O)[C@@H](NC(=O)[C@@H](N)Cc1ccccc1)[C@@H](C)CC)C(=O)NCC(N)=O` [Peptide 6b, FIAFRIG-amide] (H-FIAFRIG-NH2): the IC50 in assay [1] worked out at 35 ± 3.2 µM; in assay [2] it was 95.4 ± 5 µM.

Turning to `CC[C@H](C)[C@H](NC(=O)[C@H](CCCNC(=N)N)NC(=O)[C@H](Cc1ccccc1)NC(=O)[C@H](C)NC(=O)[C@@H](NC(=O)[C@H](Cc1ccccc1)NC(C)=O)[C@@H](C)CC)C(=O)NCC(N)=O` [Peptide 6c, Ac-FIAFRIG-amide] (Ac-FIAFRIG-NH2), the IC50 stood at 3.5 ± 0.3 µM in assay [1] and 94 ± 13 µM in assay [2].

`CC[C@H](C)[C@H](NC(=O)[C@H](CCCNC(=N)N)NC(=O)[C@H](Cc1ccccc1)NC(=O)[C@H](Cc1c[nH]cn1)NC(=O)[C@H](C)NC(=O)[C@@H](N)Cc1ccccc1)C(=O)NCC(=O)O` [Peptide 7a, FAHFRIG] (H-FAHFRIG-OH): the IC50 is 73.5 ± 6 µM in assay [1] and above 111 µM in assay [2].

In the case of `CC[C@H](C)[C@H](NC(=O)[C@H](CCCNC(=N)N)NC(=O)[C@H](Cc1ccccc1)NC(=O)[C@H](Cc1c[nH]cn1)NC(=O)[C@H](C)NC(=O)[C@@H](N)Cc1ccccc1)C(=O)NCC(N)=O` [Peptide 7b, FAHFRIG-amide] (H-FAHFRIG-NH2), the IC50 in assay [1] and in assay [2] was above 111 µM in each case.

Regarding `CC[C@H](C)[C@H](NC(=O)[C@H](CCCNC(=N)N)NC(=O)[C@H](Cc1ccccc1)NC(=O)[C@H](Cc1c[nH]cn1)NC(=O)[C@H](C)NC(=O)[C@H](Cc1ccccc1)NC(C)=O)C(=O)NCC(N)=O` [Peptide 7c, Ac-FAHFRIG-amide] (Ac-FAHFRIG-NH2), the IC50 in assay [1] was 127 ± 14 µM; in assay [2] it was above 333 µM.

For `CC[C@H](C)[C@H](NC(=O)[C@H](C)N)C(=O)N[C@@H](Cc1c[nH]cn1)C(=O)N[C@@H](Cc1ccccc1)C(=O)N[C@@H](CCCNC(=N)N)C(=O)N[C@H](C(=O)NCC(=O)O)[C@@H](C)CC` [Peptide 8a, AIHFRIG] (H-AIHFRIG-OH), the values for the IC50 in assay [1] and in assay [2] were 22.7 ± 1.4 µM and 86.3 ± 5 µM, respectively.

In the case of `CC[C@H](C)[C@H](NC(=O)[C@H](C)N)C(=O)N[C@@H](Cc1c[nH]cn1)C(=O)N[C@@H](Cc1ccccc1)C(=O)N[C@@H](CCCNC(=N)N)C(=O)N[C@H](C(=O)NCC(N)=O)[C@@H](C)CC` [Peptide 8b, AIHFRIG-amide] (H-AIHFRIG-NH2), the IC50 in assay [1] and in assay [2] was above 111 µM throughout.

`CC[C@H](C)[C@H](NC(=O)[C@H](C)NC(C)=O)C(=O)N[C@@H](Cc1c[nH]cn1)C(=O)N[C@@H](Cc1ccccc1)C(=O)N[C@@H](CCCNC(=N)N)C(=O)N[C@H](C(=O)NCC(N)=O)[C@@H](C)CC` [Peptide 8c, Ac-AIHFRIG-amide] (Ac-AIHFRIG-NH2): the results for the IC50 in assay [1] and in assay [2] were 46 ± 8 µM and above 333 µM, respectively.

`CC[C@H](C)[C@H](NC(=O)[C@@H](N)Cc1ccccc1)C(=O)N[C@@H](Cc1c[nH]cn1)C(=O)N[C@@H](Cc1ccccc1)C(=O)N[C@@H](CCCNC(=N)N)C(=O)N[C@@H](Cc1ccc(C(=O)c2ccccc2)cc1)C(=O)NCC(=O)O` [Peptide 9a, FIHFRBG] (H-FIHFR[Bpa]G-OH): the IC50 is 4 µM and 4.3 µM in assay [1]; 20 ± 3 µM in assay [2].

For `CC[C@H](C)[C@H](NC(=O)[C@H](Cc1ccc(C(=O)c2ccccc2)cc1)NC(=O)[C@H](Cc1ccccc1)NC(=O)[C@H](Cc1c[nH]cn1)NC(=O)[C@@H](NC(=O)[C@@H](N)Cc1ccccc1)[C@@H](C)CC)C(=O)NCC(=O)O` [Peptide 10a, FIHFBIG] (H-FIHF[Bpa]IG-OH), the half-maximal inhibitory concentration (IC50) in assay [1] was ~50 µM and 48 µM; in assay [2] it was above 333 µM.
